From the supplement of paper PMC10307832

Columns and labels:
Assay in all cases: relative viability (nuclei count vs DMSO), 5 days (fraction); higher = more cells survive
[1] = compound: COc1cccc2cc(-c3nc([C@H]4CC[C@H](C(=O)O)CC4)n4ncnc(N)c34)[nH]c12 [OSI-027] + CC(C)C[C@H](NC(=O)[C@H](Cc1ccccc1)NC(=O)c1cnccn1)B(O)O [Bortezomib] (partner 0.002 µM)
Method in brief: (§1)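 Relative viability equals treated-well nuclei counts divided by vehicle-well nuclei counts. Counts came from 4× images of lung cancer cell lines grown in 1536-well plates for 5 days after pin-tool dosing on the day after seeding. Dosing used one drug alone or a fixed anchor-drug dose plus five library-drug doses (not always all listed) in √10 steps, and values are medians of duplicate plates.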

[2] = compound: Cc1nc(NC(=O)N2CCC[C@H]2C(N)=O)sc1-c1ccnc(C(C)(C)C(F)(F)F)c1 [Alpelisib] + CC(=O)c1c(C)c2cnc(Nc3ccc(N4CCNCC4)cn3)nc2n(C2CCCC2)c1=O [Palbociclib] (partner 0.5 µM)
Method in brief: as §1

[3] = compound: Cc1nc(NC(=O)N2CCC[C@H]2C(N)=O)sc1-c1ccnc(C(C)(C)C(F)(F)F)c1 [Alpelisib] + C[C@]1(O)C[C@@H](c2nc(-c3ccc4ccc(-c5ccccc5)nc4c3)c3c(N)nccn32)C1 [Linsitinib] (partner 1 µM)
Method in brief: as §1

[4] = compound: Cc1nc(NC(=O)N2CCC[C@H]2C(N)=O)sc1-c1ccnc(C(C)(C)C(F)(F)F)c1 [Alpelisib] + Nc1ncn([C@H]2C[C@H](O)[C@@H](CO)O2)c(=O)n1 [Decitabine] (partner 2 µM)
Method in brief: as §1

| Cell Line | relative viability ([1]; first compound 0.01 µM) | relative viability ([1]; first compound 0.03162 µM) | relative viability ([1]; first compound 0.1 µM) | relative viability ([1]; first compound 0.3162 µM) | relative viability ([1]; first compound 1 µM) | relative viability ([2]; first compound 0.04 µM) | relative viability ([2]; first compound 0.1265 µM) | relative viability ([2]; first compound 0.4 µM) | relative viability ([2]; first compound 1.265 µM) | relative viability ([2]; first compound 4 µM) | relative viability ([3]; first compound 0.04 µM) | relative viability ([3]; first compound 0.1265 µM) | relative viability ([3]; first compound 0.4 µM) | relative viability ([3]; first compound 1.265 µM) | relative viability ([3]; first compound 4 µM) | relative viability ([4]; first compound 0.04 µM) | relative viability ([4]; first compound 0.1265 µM) | relative viability ([4]; first compound 0.4 µM) | relative viability ([4]; first compound 1.265 µM) | relative viability ([4]; first compound 4 µM) |
| --- | --- | --- | --- | --- | --- | --- | --- | --- | --- | --- | --- | --- | --- | --- | --- | --- | --- | --- | --- | --- |
| LOU-NH91 | 0.452 | 0.486 | 0.473 | 0.546 | 0.455 | 0.586 | 0.511 | 0.547 | 0.511 | 0.496 | 0.989 | 0.828 | 0.782 | 0.735 | 0.653 | 0.823 | 0.781 | 0.79 | 0.679 | 0.648 |
| RERF-LC-KJ | 1.18 | 0.948 | 1.03 | 0.808 | 0.511 | 1.1 | 1.03 | 1.16 | 0.759 | 0.928 | 0.816 | 0.878 | 0.823 | 0.734 | 0.749 | 0.668 | 0.638 | 0.706 | 0.5 | 0.536 |
| EKVX | 1.03 | 0.942 | 1.11 | 0.972 | 0.649 | 0.349 | 0.325 | 0.386 | 0.313 | 0.242 | 0.923 | 0.941 | 1.11 | 0.901 | 0.821 | 0.313 | 0.17 | 0.389 | 0.312 | 0.283 |
| NCI-H441 | 0.605 | 0.254 | 0.476 | 0.381 | 0.28 | 0.225 | 0.166 | 0.182 | 0.14 | 0.111 | 0.734 | 0.403 | 0.698 | 0.524 | 0.492 | 0.244 | 0.215 | 0.271 | 0.22 | 0.224 |
